Experimental data taken from patent US20260365670A1, “EGFR INHIBITORS AND USES THEREOF” (DIZAL (JIANGSU) PHARMACEUTICAL CO., LTD., priority 2022, published 2026).
Read-outs that look alike come from different tables or passages of the source.

How the values were obtained:
EGFR wild type = target: T1, EGFR wild type (Homo sapiens, UniProt P00533); test: Inhibition of EGFR wild type biochemical enzymatic activity (HTRF); details: EGFR WT, 1 mM ATP, 1 h, room temperature, read-out: IC50 (nM) @WT
T1 construct: purchased Carna Bio
In short: (§1)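 Read-out is the HTRF 665/615 nm ratio (excitation 320 nm), taken as proportional to kinase activity after a 1 h room-temperature reaction with 1 mM ATP and 1 μM biotinylated TK substrate. IC50 values derive from four-parameter logistic fitting.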

EGFR L858R = target: T2, EGFR L858R (Homo sapiens, UniProt P00533, L858R); test: Inhibition of EGFR L858R biochemical enzymatic activity (HTRF); details: 1 mM ATP, 1 h, room temperature, read-out: IC50 (nM) @L858R
T2 construct: purchased Carna Bio
In short: as §1

EGFR L858R/T790M = target: T3, EGFR L858R/T790M (Homo sapiens, UniProt P00533, L858R/T790M); test: Inhibition of EGFR L858R/T790M biochemical enzymatic activity (HTRF); details: EGFR L858R-T790M, 1 mM ATP, 1 h, room temperature, read-out: IC50 (nM) @L858R-T790M
T3 construct: purchased Carna Bio
T3 sequence (P00533 25-1210 T790M/L858R): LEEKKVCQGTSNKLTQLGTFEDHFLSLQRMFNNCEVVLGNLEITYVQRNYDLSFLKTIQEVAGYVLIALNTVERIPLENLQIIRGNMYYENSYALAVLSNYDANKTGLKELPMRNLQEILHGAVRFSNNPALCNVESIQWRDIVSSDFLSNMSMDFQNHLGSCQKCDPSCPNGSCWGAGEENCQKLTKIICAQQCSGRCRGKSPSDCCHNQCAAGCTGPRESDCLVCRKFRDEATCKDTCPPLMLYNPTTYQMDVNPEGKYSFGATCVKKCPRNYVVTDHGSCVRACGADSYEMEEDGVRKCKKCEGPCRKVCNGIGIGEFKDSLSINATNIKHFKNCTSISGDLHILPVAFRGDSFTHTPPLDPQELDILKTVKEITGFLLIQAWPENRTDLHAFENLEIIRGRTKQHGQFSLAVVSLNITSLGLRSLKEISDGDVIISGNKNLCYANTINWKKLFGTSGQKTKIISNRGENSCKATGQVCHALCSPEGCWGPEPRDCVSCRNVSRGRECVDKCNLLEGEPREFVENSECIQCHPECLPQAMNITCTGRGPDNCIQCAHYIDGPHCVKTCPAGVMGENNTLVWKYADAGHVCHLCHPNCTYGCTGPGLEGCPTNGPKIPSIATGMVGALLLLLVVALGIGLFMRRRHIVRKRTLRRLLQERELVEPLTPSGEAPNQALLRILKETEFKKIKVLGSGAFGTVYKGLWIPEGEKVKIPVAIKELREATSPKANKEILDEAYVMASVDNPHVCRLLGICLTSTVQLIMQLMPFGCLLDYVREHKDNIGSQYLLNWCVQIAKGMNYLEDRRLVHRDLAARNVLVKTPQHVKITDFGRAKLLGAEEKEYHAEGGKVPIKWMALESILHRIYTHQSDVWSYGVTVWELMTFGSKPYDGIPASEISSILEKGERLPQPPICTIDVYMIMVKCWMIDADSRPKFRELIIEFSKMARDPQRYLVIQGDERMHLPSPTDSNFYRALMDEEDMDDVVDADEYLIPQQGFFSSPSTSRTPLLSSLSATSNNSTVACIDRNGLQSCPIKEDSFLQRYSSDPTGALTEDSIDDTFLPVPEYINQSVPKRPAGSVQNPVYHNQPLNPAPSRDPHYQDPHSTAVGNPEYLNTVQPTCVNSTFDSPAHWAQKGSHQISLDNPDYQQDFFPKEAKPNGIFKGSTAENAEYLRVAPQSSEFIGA
In short: as §1

EGFR Exon19Del = target: T4, EGFR Exon19Del (Homo sapiens, UniProt P00533, DEL746-750); test: Inhibition of EGFR Exon19Del biochemical enzymatic activity (HTRF); details: EGFR Del19, 1 mM ATP, 1 h, room temperature, read-out: IC50 @Del19
T4 construct: purchased Carna Bio
In short: as §1

EGFR Exon19Del/T790M = target: T5, EGFR Exon19Del/T790M (Homo sapiens, UniProt P00533, DEL746-750/T790M); test: Inhibition of EGFR Exon19Del/T790M biochemical enzymatic activity (HTRF); details: EGFR Del19-T790M, 1 mM ATP, 1 h, room temperature, read-out: IC50 (nM) @Del19-T790M
T5 construct: purchased Carna Bio
T5 sequence (P00533 with tags, fused parts or gaps DEL746-750/T790M limits assumed): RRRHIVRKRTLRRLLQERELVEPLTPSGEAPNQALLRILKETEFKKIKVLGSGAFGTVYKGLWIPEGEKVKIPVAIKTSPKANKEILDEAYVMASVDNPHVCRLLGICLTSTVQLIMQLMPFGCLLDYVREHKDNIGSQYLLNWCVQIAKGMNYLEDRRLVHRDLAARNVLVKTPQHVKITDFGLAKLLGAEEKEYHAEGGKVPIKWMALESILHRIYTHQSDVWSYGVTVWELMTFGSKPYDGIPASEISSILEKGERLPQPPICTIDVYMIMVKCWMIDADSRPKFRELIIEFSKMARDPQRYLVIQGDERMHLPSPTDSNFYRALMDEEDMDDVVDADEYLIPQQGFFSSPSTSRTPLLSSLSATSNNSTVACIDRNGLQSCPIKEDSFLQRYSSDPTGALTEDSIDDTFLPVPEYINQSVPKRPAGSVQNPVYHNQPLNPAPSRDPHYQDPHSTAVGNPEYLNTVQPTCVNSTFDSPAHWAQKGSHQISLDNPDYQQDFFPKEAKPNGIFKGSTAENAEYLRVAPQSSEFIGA
In short: as §1

EGFR[T790M/C797S/L858R] = target: T6, EGFR[T790M/C797S/L858R] (Homo sapiens, UniProt P00533, C797S/L858R/T790M); test: Inhibition of EGFR[T790M/C797S/L858R] biochemical enzymatic activity (HTRF); details: EGFR T790M-C797S-L858R, 1 mM ATP, 1 h, room temperature, read-out: IC50 (nM) @T790M- C797S - L858R
T6 construct: purchased Carna Bio
T6 sequence (P00533 25-1210 T790M/C797S/L858R): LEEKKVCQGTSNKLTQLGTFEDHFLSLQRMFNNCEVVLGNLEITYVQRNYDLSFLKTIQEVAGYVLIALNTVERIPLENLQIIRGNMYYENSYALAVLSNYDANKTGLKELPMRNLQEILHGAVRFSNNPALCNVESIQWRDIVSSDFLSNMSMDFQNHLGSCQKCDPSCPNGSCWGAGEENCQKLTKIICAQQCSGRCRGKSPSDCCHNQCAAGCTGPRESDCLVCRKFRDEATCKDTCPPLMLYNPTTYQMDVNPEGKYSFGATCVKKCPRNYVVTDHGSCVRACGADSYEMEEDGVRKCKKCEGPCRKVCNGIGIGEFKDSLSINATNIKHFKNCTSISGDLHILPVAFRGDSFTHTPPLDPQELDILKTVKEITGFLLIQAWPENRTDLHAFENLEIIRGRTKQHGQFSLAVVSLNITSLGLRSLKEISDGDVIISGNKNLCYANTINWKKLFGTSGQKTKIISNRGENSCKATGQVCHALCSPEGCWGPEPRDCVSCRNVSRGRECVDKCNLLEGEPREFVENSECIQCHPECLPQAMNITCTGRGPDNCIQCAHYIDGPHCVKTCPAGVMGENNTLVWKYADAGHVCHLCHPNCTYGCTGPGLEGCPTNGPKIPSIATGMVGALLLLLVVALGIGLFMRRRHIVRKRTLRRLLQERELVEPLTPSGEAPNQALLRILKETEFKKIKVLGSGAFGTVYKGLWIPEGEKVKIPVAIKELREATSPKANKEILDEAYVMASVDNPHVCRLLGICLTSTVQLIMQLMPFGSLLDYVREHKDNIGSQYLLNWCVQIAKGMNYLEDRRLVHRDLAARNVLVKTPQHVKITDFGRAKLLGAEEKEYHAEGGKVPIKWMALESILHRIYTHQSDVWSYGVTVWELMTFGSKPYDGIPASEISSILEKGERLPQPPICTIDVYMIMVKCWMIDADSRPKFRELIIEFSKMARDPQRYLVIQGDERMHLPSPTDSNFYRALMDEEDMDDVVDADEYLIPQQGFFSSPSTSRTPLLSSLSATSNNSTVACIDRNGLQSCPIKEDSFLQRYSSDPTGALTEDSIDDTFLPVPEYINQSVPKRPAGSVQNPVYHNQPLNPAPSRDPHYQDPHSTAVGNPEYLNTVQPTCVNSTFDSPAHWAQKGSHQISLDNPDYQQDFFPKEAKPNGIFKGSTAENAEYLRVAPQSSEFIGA
In short: as §1

[1] = target: T7, EGFR[T790M/C797S/d746-750] (Homo sapiens, UniProt P00533, C797S/DEL746-750/T790M); test: Inhibition of EGFR[T790M/C797S/d746-750] biochemical enzymatic activity (HTRF); details: EGFR T790M-C797S-Del19, 1 mM ATP, 1 h, room temperature, read-out: IC50 (nM) @T790M - C797S - Del19
T7 construct: purchased Carna Bio
In short: as §1

EGFR (d746-750 C797S) = target: T8, EGFR (d746-750 C797S) (Homo sapiens, UniProt P00533, C797S/DEL746-750); test: Inhibition of EGFR (d746-750 C797S) biochemical enzymatic activity (HTRF); details: EGFR Del19-C797S, 1 mM ATP, 1 h, room temperature, read-out: IC50 (nM) @Del19-C797S
T8 construct: purchased signalchem
T8 sequence (P00533 with tags, fused parts or gaps DEL746-750/C797S limits assumed): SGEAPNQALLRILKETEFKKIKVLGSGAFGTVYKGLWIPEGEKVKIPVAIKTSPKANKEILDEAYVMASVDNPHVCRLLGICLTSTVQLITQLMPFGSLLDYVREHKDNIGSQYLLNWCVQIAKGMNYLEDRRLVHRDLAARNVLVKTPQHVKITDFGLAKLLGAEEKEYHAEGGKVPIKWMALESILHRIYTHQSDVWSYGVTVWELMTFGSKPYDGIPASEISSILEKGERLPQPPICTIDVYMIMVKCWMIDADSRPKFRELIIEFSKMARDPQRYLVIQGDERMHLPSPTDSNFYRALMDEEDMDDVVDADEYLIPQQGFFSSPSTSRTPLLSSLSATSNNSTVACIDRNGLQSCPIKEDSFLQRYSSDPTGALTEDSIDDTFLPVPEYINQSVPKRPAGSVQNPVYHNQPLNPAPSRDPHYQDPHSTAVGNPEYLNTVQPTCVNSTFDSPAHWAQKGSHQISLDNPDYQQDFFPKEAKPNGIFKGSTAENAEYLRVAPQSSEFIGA
In short: as §1

EGFR (C797S L858R) = target: T9, EGFR (C797S L858R) (Homo sapiens, UniProt P00533, C797S/L858R); test: Inhibition of EGFR (C797S L858R) biochemical enzymatic activity (HTRF); details: EGFR L858-C797S, 1 mM ATP, 1 h, room temperature, read-out: IC50 (nM) @L858-C797S
T9 construct: purchased signalchem
T9 sequence (P00533 25-1210 C797S/L858R): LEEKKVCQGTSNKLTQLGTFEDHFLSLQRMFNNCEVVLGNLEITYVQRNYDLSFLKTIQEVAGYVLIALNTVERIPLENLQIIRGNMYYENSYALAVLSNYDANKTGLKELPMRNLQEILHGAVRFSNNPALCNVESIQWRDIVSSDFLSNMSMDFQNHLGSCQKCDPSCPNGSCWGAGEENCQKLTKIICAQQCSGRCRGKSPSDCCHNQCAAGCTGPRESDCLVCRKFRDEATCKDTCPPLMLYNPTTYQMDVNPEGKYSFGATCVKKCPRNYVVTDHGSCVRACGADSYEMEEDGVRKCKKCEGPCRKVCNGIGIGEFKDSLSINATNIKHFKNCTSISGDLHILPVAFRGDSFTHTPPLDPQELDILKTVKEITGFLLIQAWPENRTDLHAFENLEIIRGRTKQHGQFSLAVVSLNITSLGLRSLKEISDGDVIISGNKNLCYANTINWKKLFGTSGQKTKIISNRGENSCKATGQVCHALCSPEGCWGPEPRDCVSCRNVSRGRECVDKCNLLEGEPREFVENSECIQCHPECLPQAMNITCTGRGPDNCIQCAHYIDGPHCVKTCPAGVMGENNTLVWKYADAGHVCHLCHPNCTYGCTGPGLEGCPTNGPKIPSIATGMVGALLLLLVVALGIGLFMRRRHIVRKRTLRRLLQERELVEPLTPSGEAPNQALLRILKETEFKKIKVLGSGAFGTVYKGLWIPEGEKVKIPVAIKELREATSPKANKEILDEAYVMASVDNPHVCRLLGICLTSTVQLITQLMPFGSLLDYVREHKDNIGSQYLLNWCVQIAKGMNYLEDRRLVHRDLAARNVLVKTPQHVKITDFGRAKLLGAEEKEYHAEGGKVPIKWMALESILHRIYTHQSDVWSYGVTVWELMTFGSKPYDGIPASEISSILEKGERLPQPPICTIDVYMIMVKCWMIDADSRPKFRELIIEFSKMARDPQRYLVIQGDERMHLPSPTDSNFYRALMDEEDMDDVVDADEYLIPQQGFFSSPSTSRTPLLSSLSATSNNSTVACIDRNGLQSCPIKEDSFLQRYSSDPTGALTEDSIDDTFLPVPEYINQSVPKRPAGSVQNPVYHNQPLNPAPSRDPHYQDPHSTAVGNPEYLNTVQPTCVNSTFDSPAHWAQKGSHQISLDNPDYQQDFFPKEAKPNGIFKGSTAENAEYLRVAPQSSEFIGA
In short: as §1

[2] = test system: Ba/F3 cells expressing EGFR mutations; test: Cell proliferation assay, Ba/F3 cells expressing EGFR mutations (CellTiter-Glo, 72 hours); type: cell-based; details: CellTiter-Glo
In short: (§2)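 Ba/F3 cells carrying EGFR mutants (5000/well) or PC-9 cells (500/well) in RPMI1640 were dosed with compound series after overnight attachment and grown 72 h. Viability read by CellTiter-Glo, with day-0 counts subtracted; GI50 from curve fits of % proliferation versus DMSO control.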

PC-9 = test: Cell proliferation assay, PC-9 cells (CellTiter-Glo, 72 hours); type: cell-based; details: PC9 cells, CellTiter-Glo, read-out: PC9 GI50
In short: as §2

A-431 = test: Cell proliferation GI50, A-431 cells (Table 6); type: cell-based
[3] = BaF3 cells, EGFR DEL19-C797S, read-out: DEL19-C797S/BaF3 GI50
[4] = BaF3 cells, EGFR DEL19-T790-C797S, read-out: DEL19-T790-C797S/BaF3 GI50
[5] = BaF3 cells, EGFR L858R, read-out: L858R/BaF3 GI50
[6] = BaF3 cells, EGFR L858R-C797S, read-out: L858R-C797S/BaF3 GI50
[7] = BaF3 cells, EGFR L858R-T790-C797S, read-out: L858R-T790-C797S/BaF3 GI50
[8] = BaF3 cells, EGFR L858R-T790M, read-out: L858R-T790M/BaF3 GI50
[9] = EGFR DEL19-T790M, read-out: DEL19-T790M GI50
[10] = Mus musculus, BaF3, 72 h, BaF3 cells, EGFR DEL19-C797S, read-out: DEL19-C797S/BaF3 GI50
[11] = Mus musculus, BaF3, 72 h, BaF3 cells, EGFR DEL19-T790-C797S, read-out: DEL19-T790-C797S/BaF3 GI50
[12] = Mus musculus, BaF3, 72 h, BaF3 cells, EGFR L858R, read-out: L858R/BaF3 GI50
[13] = Mus musculus, BaF3, 72 h, BaF3 cells, EGFR L858R-C797S, read-out: L858R-C797S/BaF3 GI50
[14] = Mus musculus, BaF3, 72 h, BaF3 cells, EGFR L858R-T790-C797S, read-out: L858R-T790-C797S/BaF3 GI50
[15] = Mus musculus, BaF3, 72 h, BaF3 cells, EGFR L858R-T790M, read-out: L858R-T790M/BaF3 GI50
[16] = Mus musculus, BaF3, 72 h, EGFR DEL19-T790M, read-out: DEL19-T790M GI50
[17] = Homo sapiens, A-431, A-431 cells

IC50 (EGFR wild type)	IC50 (EGFR L858R)	IC50 (EGFR L858R/T790M)	IC50 (EGFR Exon19Del)	IC50 (EGFR Exon19Del/T790M)	IC50 (EGFR[T790M/C797S/L858R])	IC50 [1]	IC50 (EGFR (d746-750 C797S))	IC50 (EGFR (C797S L858R))	GI50 [2, 3]	GI50 [2, 4]	GI50 [2, 5]	GI50 [2, 6]	GI50 [2, 7]	GI50 [2, 8]	GI50 [2, 9]	GI50 (PC-9)	GI50 (A-431; A-431 cells)	GI50 [2, 10]	GI50 [2, 11]	also measured	Compound
9.3 nM	7.2 nM	7.8 nM	3.2 nM	6.2 nM	6.7 nM	5.1 nM	3.1 nM	8.8 nM	0.55 nM	1 nM	1.2 nM	3 nM	1 nM	4.2 nM	1 nM	11 nM	6140 nM	–	–	–	CN1CCN(C2CCN(c3ccc4nc5n(c4c3)C34CCC(CN(CCOc6c(cnn6C)-c6cc(cn(C)c6=O)C(=O)N5)C3)C4)C2)CC1 (single isomer, unassigned) [Example A80B1, 15,21-Dimethyl-5-[3-(4-methylpiperazin-1-yl)pyrrolidin-1-yl]-23-oxa-2,9,11,15,20,21,26-heptaazaheptacyclo[24.4.1.1^{1,28}.1^{13,17}.0^{2,10}.0^{3,8}.0^{18,22}]tritriaconta-3,5,7,9,13,17(33),18(22),19-octaene-12,16-dione]
1130 nM	46 nM	9.5 nM	4.5 nM	4.2 nM	4.9 nM	4.2 nM	2.5 nM	20 nM	–	–	–	–	–	–	–	–	–	1.7 nM	9.7 nM	GI50 [2, 12]: 4 nM; GI50 [2, 13]: 3.2 nM; GI50 [2, 14]: 3.4 nM; GI50 [2, 15]: 17 nM; GI50 [2, 16]: 12 nM; GI50 (PC-9; Homo sapiens, PC-9, 72 h): 7 nM; GI50 (A-431; [17]): 200 nM	C[C@@H]1CCCOc2c(cnn2C)-c2cc(cn(C)c2=O)C(=O)Nc2nc3ccc(N4CC5(CN(C)CCO5)C4)cc3n2C1 [Example A47]
2420 nM	224 nM	8 nM	6.1 nM	1.8 nM	17 nM	1.7 nM	2.5 nM	146 nM	–	–	–	–	–	–	–	–	–	1.7 nM	11 nM	GI50 [2, 12]: 21 nM; GI50 [2, 13]: 22 nM; GI50 [2, 14]: 16 nM; GI50 [2, 15]: 55 nM; GI50 [2, 16]: 9.9 nM; GI50 (PC-9; Homo sapiens, PC-9, 72 h): 29 nM; GI50 (A-431; [17]): 1790 nM	Cn1ncc2c1OCCN1CC3CCC(C3)(C1)n1c(nc3ccccc31)NC(=O)c1cc-2c(=O)n(C)c1 (stereo not drawn) [Example A61B, 15,21-Dimethyl-23-oxa-2,9,11,15,20,21,26-heptaazaheptacyclo[24.4.1.1^{1,28}.1^{13,17}.0^{2,10}.0^{3,8}.0^{18,22}]tritriaconta-3,5,7,9,13,17(33),18(22),19-octaene-12,16-dione]
134 nM	16 nM	7.4 nM	1.9 nM	3.8 nM	5.4 nM	4 nM	2.2 nM	11 nM	0.57 nM	3.2 nM	2.2 nM	3.8 nM	4.1 nM	9.2 nM	2.6 nM	28 nM	1700 nM	–	–	–	CN(C)CCCN(C)c1ccc2nc3n(c2c1)C12CCC(CN(CCOc4c(cnn4C)-c4cc(cn(C)c4=O)C(=O)N3)C1)C2 (single isomer, unassigned) [Example A89B]
